Test results as given in patent US20130204033A1, “ANTIPROLIFERATIVE COMPOUNDS, CONJUGATES THEREOF, METHODS THEREFOR, AND USES THEREOF” (Medarex, Inc., priority 2009, published 2013).
Read-outs that look alike come from different tables or passages of the source.

Experiments:
Assay type in all cases: cell-based, human
A549 = assay: ATP luminescence proliferation assay, A549
Procedure: (§1) This example generally describes the procedures used to assay the antiproliferative activity of compounds of this invention or their conjugates. Human tumor cell lines were obtained from the American Type Culture Collection (ATCC), P.O. Box 1549, Manassas, Va. 20108, USA, and cultured according to instruction from the ATCC. Cells were seeded at 1.0×10^3 or 1.0×10^4 cells/well in 96-well plates for 3 h for ATP assays or ^3H thymidine assays, respectively. 1:3 serial dilutions of free (unconjugated) compounds or their conjugates were added to the wells. Plates were allowed to incubate for 24 to 72 h. The ^3H thymidine plates were pulsed with 1.0 μCi of ^3H-thymidine per well for the last 24 hours of the total incubation period, harvested, and read on a Top Count Scintillation Counter (Packard Instruments, Meriden, Conn.). ATP levels in the ATP plates were measured using the […]-GLO® Luminescent Cell Viability kit following the manufacturer's manual and read on a GLOMAX® 20/20 luminometer (both from Promega, Madison, Wis., USA). The EC50 values—the concentration at which an agent inhibits or reduces cell proliferation by 50% —were determined using PRISM™ software, version 4.0 (GraphPad Software, La Jolla, Calif., USA).
(§2) Using the ^3H thymidine or the ATP luminescence assay, or both, the activities of compounds of this invention were assayed against the following cancer cell lines: HCT-15 (colorectal cancer, multi-drug resistant (MDR)); Hep3B (liver cancer); LNCaP (prostate cancer, androgen receptor positive (AR^+)); MDA-MB-231 (breast cancer, estrogen receptor, progesterone receptor, and Her2 negative (triple negative)); A2058 (melanoma); U-87 MG (glioblastoma); NCI-H460 (NSCLC); A549 (NSCLC); HPAC (pancreatic cancer, primary); PC3 (prostate cancer, AR); BT474 (breast cancer, Her2 highly positive (Her2hi)); SKOV3 (ovarian cancer, Her2hi); 786-O (renal cancer); UO-31 (renal cancer, MDR); NCI-H740 (SCLC); DMS53 (SCLC); SK-BR3 (breast cancer, Her2hi); ZR-75 (breast cancer, estrogen receptor positive); OVCAR3 (ovarian cancer); HL-60 (APL); OVCAR8/Adr (ovarian cancer, MDR); CEM-Cl (ALL); Nomo-1 (AML); RPMI-8226 (MM)); Raji (lymphoma); SW-480 (colorectal cancer, metastatic); SW-620 (colorectal cancer); and H226 (lung cancer). (Not all compounds were assayed against all cell lines.)
(§3) Table 3 provides the data for the ATP luminescence proliferation assays, with an incubation period of 48, 72, or 96 h, as noted.

UO-31 = assay: ATP luminescence proliferation assay, UO-31
Procedure: as §1, §2, §3

CEM-C1 = assay: 3H thymidine proliferation assay, CEM-C1
Procedure: as §1, §2
(§4) Table 2 provides the data for proliferation assays using the ^3H thymidine method, with an incubation period of 72 h.

SKOV3 [1] = assay: ATP luminescence proliferation assay, SKOV3
Procedure: as §1, §2, §3

MDA-MB-231 = assay: 3H thymidine proliferation assay, MDA-MB-231
Procedure: as §1, §2, §4

SKOV3 [2] = assay: 3H thymidine proliferation assay, SKOV3
Procedure: as §1, §2, §4

Hep3B = assay: 3H thymidine proliferation assay, Hep3B
Procedure: as §1, §2, §4

ZR-75 = assay: 3H thymidine proliferation assay, ZR-75
Procedure: as §1, §2, §4

786-O = assay: ATP luminescence proliferation assay, 786-O
How it was run: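 Cells seeded at 1.0×10^3 cells/well for 3 h, then exposed to 1:3 serial dilutions of free compounds or conjugates for 48, 72 or 96 h, as noted. ATP measured by luminescent cell viability kit; EC50 taken as concentration reducing proliferation by 50%.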

LNCaP = assay: ATP luminescence proliferation assay, LNCaP
Procedure: as §1, §2, §3

PC3 = assay: ATP luminescence proliferation assay, PC3
Procedure: as §1, §2, §3

Nomo-1 = assay: 3H thymidine proliferation assay, Nomo-1
Procedure: as §1, §2, §4

NCI-H740 = assay: ATP luminescence proliferation assay, NCI-H740; details: H740, 72 h incubation
Procedure: as §1, with “Calif., USA). […]” for “Calif., USA).”
as §3

[3] = Homo sapiens, A549, 48 h, read-out: EC50 A549 (48 h), ATP luminescence, A549, 48 h incubation
[4] = Homo sapiens, CEM/C1, read-out: EC50, CEM-C1, 3H thymidine method, 72 h incubation
[5] = Homo sapiens, SK-OV-3, 72 h, read-out: EC50 SKOV3 (72 h), ATP luminescence, SKOV3, 72 h incubation
[6] = Homo sapiens, MDA-MB-231, read-out: EC50, MDA-MB-231, 3H thymidine method, 72 h incubation
[7] = Homo sapiens, SK-OV-3, read-out: EC50, SKOV3, 3H thymidine method, 72 h incubation
[8] = Homo sapiens, Hep3B, read-out: EC50, Hep3B, 3H thymidine method, 72 h incubation
[9] = Homo sapiens, ZR75, read-out: EC50, ZR-75, 3H thymidine method, 72 h incubation
[10] = Homo sapiens, 786-0, 72 h, read-out: EC50 786-O (72 h), ATP luminescence, 786-O, 72 h incubation
[11] = Homo sapiens, 72 h, read-out: EC50 LNCaP (72 h), ATP luminescence, LNCaP, 72 h incubation
[12] = Homo sapiens, PC-3, 48 h, read-out: EC50 PC3 (48 h), ATP luminescence, PC3, 48 h incubation
[13] = Homo sapiens, NOMO-1, read-out: EC50, Nomo-1, 3H thymidine method, 72 h incubation
[14] = Homo sapiens, ATP luminescence, A549, 48 h incubation, read-out: EC50 A549 (48 h)
[15] = Homo sapiens, ATP luminescence, UO-31, 48 h incubation, read-out: EC50 UO-31 (48 h)
[16] = Homo sapiens, CEM/C1, 3H thymidine method, 72 h incubation, read-out: EC50, CEM-C1
[17] = Homo sapiens, SK-OV-3, ATP luminescence, SKOV3, 48 h incubation, read-out: EC50 SKOV3 (48 h)
[18] = Homo sapiens, MDA-MB-231, 3H thymidine method, 72 h incubation, read-out: EC50, MDA-MB-231
[19] = Homo sapiens, SK-OV-3, 3H thymidine method, 72 h incubation, read-out: EC50, SKOV3
[20] = Homo sapiens, Hep3B, 3H thymidine method, 72 h incubation, read-out: EC50, Hep3B
[21] = Homo sapiens, ZR75, 3H thymidine method, 72 h incubation, read-out: EC50, ZR-75
[22] = Homo sapiens, 786-0, ATP luminescence, 786-O, 48 h incubation, read-out: EC50 786-O (48 h)
[23] = Homo sapiens, ATP luminescence, 72 h incubation, read-out: EC50 LNCaP (72 h)
[24] = Homo sapiens, PC-3, ATP luminescence, PC3, 48 h incubation, read-out: EC50 PC3 (48 h)
[25] = Homo sapiens, NOMO-1, 3H thymidine method, 72 h incubation, read-out: EC50, Nomo-1

SMILES	EC50 (A549; [3])	EC50 (CEM-C1; [4])	EC50 (SKOV3 [1]; [5])	EC50 (MDA-MB-231; [6])	EC50 (SKOV3 [2]; [7])	EC50 (Hep3B; [8])	EC50 (ZR-75; [9])	EC50 (786-O; [10])	EC50 (LNCaP; [11])	EC50 (PC3; [12])	EC50 (Nomo-1; [13])	EC50 (A549; [14])	EC50 (UO-31; [15])	EC50 (CEM-C1; [16])	EC50 (SKOV3 [1]; [17])	EC50 (MDA-MB-231; [18])	EC50 (SKOV3 [2]; [19])	EC50 (Hep3B; [20])	EC50 (ZR-75; [21])	EC50 (786-O; [22])	further results
CC[C@H](C)[C@H](NC(=O)[C@H]1CCCCN1C)C(=O)N(C)[C@H](C[C@@H](OC(C)=O)c1nc(C(=O)N[C@@H](Cc2ccc(N)cc2)CC(C)C(=O)O)cs1)C(C)C (stereo partly shown) [Compound 36]	1.9 nM	44 nM	45 nM	> 100 nM	32 nM	39 nM	> 100 nM	183 nM	> 300 nM	78 nM	124 nM										EC50 (UO-31; Homo sapiens, UO-31, 48 h, read-out: EC50 UO-31 (48 h), ATP luminescence, UO-31, 48 h incubation): 8.8 nM
CC[C@H](C)[C@H](NC(=O)[C@H]1CCCCN1C)C(=O)N(COC(=O)CC(C)C)[C@H](C[C@@H](OC(C)=O)c1nc(C(=O)N[C@@H](Cc2ccccc2)C[C@H](C)C(=O)O)cs1)C(C)C [Tub D, tubulysin D, reference compound]																					EC50 (A549; ATP luminescence, A549, 48 h incubation, read-out: EC50 A549 (48 h)): 0.02 nM; EC50 (UO-31; ATP luminescence, UO-31, 48 h incubation, read-out: EC50 UO-31 (48 h)): 0.099 nM; EC50 (CEM-C1; 3H thymidine method, 72 h incubation, read-out: EC50, CEM-C1): 0.018 nM; EC50 (SKOV3 [1]; ATP luminescence, SKOV3, 48 h incubation, read-out: EC50 SKOV3 (48 h)): 0.029 nM; EC50 (NCI-H740): 0.022 nM; EC50 (MDA-MB-231; 3H thymidine method, 72 h incubation, read-out: EC50, MDA-MB-231): 0.091 nM; EC50 (SKOV3 [2]; 3H thymidine method, 72 h incubation, read-out: EC50, SKOV3): 0.039 nM; EC50 (Hep3B; 3H thymidine method, 72 h incubation, read-out: EC50, Hep3B): 0.022 nM; EC50 (ZR-75; 3H thymidine method, 72 h incubation, read-out: EC50, ZR-75): 1.7 nM; EC50 (786-O; ATP luminescence, 786-O, 48 h incubation, read-out: EC50 786-O (48 h)): 0.022 nM; EC50 (LNCaP; ATP luminescence, 72 h incubation, read-out: EC50 LNCaP (72 h)): 0.093 nM; EC50 (PC3; ATP luminescence, PC3, 48 h incubation, read-out: EC50 PC3 (48 h)): 0.039 nM; EC50 (Nomo-1; 3H thymidine method, 72 h incubation, read-out: EC50, Nomo-1): 0.042 nM
CC[C@H](C)[C@H](NC(=O)[C@H]1CCCCN1C)C(=O)N(COC(=O)CC(C)C)[C@H](C[C@@H](OC(C)=O)c1nc(C(=O)N[C@@H](Cc2ccc(N)cc2)CC(C)C(=O)O)cs1)C(C)C (stereo partly shown) [Compound 54]	3 nM	0.38 nM	1.3 nM	1.6 nM	0.34 nM	0.3 nM	2.2 nM	2.6 nM	11 nM	3.1 nM	0.77 nM										
Nc1ccc(C(=O)Nc2ccc3[nH]c(C(=O)N4C[C@@H](CCl)c5c4cc(O)c4ccccc54)cc3c2)cc1 [CBI, reference compound]												3 nM	4.2 nM	0.11 nM	3 nM	0.019 nM	0.047 nM	0.02 nM	1.5 nM	1.6 nM	EC50 (NCI-H740; Homo sapiens): 2.2 nM; EC50 (LNCaP; [23]): 3.3 nM; EC50 (PC3; [24]): 12 nM; EC50 (Nomo-1; [25]): 0.016 nM
COc1cccc2c1C(=O)c1c(O)c3c(c(O)c1C2=O)C[C@@](O)(C(=O)CO)C[C@@H]3O[C@H]1C[C@H](N)[C@H](O)[C@H](C)O1 [Dox, doxorubicin, reference compound]												149 nM	908 nM	144 nM	674 nM	133 nM	163 nM	44 nM	794 nM	360 nM	EC50 (LNCaP; [23]): 592 nM; EC50 (PC3; [24]): 1080 nM; EC50 (Nomo-1; [25]): 105 nM
